In ChEMBL document CHEMBL5058649, “Data for DCP probe BAY 1816032” (2022):
Calls of active or inactive are those of the source. The rule behind the calls is not given here.

Legend:
[1] = target: Serine/threonine-protein kinase WNK2 (Homo sapiens) (UniProt Q9Y3S1); test: WNK2 DiscoveRx kinase panel; conditions: Compound concentration 1.0 uM
[2] = target: Beta-1 adrenergic receptor (Homo sapiens) (UniProt P08588); conditions: Compound concentration 10.0 uM
[3] = target: Serine/threonine-protein kinase BRSK1 (Homo sapiens) (UniProt Q8TDC3); test: BRSK1 DiscoveRx kinase panel; conditions: Compound concentration 1.0 uM
Chain of Serine/threonine-protein kinase BRSK1 (Homo sapiens) (Q8TDC3 whole entry): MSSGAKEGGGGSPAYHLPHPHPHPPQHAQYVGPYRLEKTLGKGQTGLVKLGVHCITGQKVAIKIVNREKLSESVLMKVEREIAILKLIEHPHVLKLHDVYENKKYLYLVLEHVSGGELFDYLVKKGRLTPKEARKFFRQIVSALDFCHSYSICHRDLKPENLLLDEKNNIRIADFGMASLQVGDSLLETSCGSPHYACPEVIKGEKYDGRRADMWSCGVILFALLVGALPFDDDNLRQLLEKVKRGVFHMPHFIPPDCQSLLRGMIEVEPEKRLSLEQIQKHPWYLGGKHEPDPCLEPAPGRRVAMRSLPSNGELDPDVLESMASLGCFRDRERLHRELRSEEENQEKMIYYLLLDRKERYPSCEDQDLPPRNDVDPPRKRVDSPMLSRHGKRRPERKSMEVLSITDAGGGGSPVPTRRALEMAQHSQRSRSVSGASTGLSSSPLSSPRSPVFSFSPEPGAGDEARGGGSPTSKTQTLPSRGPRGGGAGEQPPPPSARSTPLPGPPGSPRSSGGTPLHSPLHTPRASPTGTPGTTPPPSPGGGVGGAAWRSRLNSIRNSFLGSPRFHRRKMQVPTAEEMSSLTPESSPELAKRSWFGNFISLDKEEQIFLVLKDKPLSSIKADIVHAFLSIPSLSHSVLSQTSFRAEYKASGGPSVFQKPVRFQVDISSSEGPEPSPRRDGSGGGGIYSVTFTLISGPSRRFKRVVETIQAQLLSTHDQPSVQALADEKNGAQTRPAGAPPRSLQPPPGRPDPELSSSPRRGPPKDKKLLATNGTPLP

[4] = target: Mitogen-activated protein kinase kinase kinase 1 (Homo sapiens) (UniProt Q13233); test: MAP3K1 DiscoveRx kinase panel; conditions: Compound concentration 1.0 uM
[5] = target: Cyclin-dependent kinase-like 3 (Homo sapiens) (UniProt Q8IVW4); test: CDKL3 DiscoveRx kinase panel; conditions: Compound concentration 1.0 uM
[6] = target: Ephrin type-B receptor 4 (Homo sapiens) (UniProt P54760); test: EPHB4 DiscoveRx kinase panel; conditions: Compound concentration 1.0 uM
[7] = target: Platelet-derived growth factor receptor alpha (Homo sapiens) (UniProt P16234); test: PDGFRA DiscoveRx kinase panel; conditions: Compound concentration 1.0 uM
[8] = target: Calcium/calmodulin-dependent protein kinase kinase 1 (Homo sapiens) (UniProt Q8N5S9); test: CAMKK1 DiscoveRx kinase panel; conditions: Compound concentration 1.0 uM
[9] = target: Cyclin-dependent kinase 4 (Homo sapiens) (UniProt P11802); test: CDK4 DiscoveRx kinase panel; conditions: Compound concentration 1.0 uM
[10] = target: Dual specificity mitogen-activated protein kinase kinase 3 (Homo sapiens) (UniProt P46734); test: MEK3 DiscoveRx kinase panel; conditions: Compound concentration 1.0 uM
[11] = target: Serine/threonine-protein kinase Nek2 (Homo sapiens) (UniProt P51955); test: NEK2 DiscoveRx kinase panel; conditions: Compound concentration 1.0 uM
[12] = target: Serine/threonine-protein kinase mTOR (Homo sapiens) (UniProt P42345); test: MTOR DiscoveRx kinase panel; conditions: Compound concentration 1.0 uM
[13] = target: T1, Mitotic checkpoint serine/threonine-protein kinase BUB1 (Homo sapiens, UniProt O43683); test: TR-FRET
Target sequence in this assay (O43683 whole entry): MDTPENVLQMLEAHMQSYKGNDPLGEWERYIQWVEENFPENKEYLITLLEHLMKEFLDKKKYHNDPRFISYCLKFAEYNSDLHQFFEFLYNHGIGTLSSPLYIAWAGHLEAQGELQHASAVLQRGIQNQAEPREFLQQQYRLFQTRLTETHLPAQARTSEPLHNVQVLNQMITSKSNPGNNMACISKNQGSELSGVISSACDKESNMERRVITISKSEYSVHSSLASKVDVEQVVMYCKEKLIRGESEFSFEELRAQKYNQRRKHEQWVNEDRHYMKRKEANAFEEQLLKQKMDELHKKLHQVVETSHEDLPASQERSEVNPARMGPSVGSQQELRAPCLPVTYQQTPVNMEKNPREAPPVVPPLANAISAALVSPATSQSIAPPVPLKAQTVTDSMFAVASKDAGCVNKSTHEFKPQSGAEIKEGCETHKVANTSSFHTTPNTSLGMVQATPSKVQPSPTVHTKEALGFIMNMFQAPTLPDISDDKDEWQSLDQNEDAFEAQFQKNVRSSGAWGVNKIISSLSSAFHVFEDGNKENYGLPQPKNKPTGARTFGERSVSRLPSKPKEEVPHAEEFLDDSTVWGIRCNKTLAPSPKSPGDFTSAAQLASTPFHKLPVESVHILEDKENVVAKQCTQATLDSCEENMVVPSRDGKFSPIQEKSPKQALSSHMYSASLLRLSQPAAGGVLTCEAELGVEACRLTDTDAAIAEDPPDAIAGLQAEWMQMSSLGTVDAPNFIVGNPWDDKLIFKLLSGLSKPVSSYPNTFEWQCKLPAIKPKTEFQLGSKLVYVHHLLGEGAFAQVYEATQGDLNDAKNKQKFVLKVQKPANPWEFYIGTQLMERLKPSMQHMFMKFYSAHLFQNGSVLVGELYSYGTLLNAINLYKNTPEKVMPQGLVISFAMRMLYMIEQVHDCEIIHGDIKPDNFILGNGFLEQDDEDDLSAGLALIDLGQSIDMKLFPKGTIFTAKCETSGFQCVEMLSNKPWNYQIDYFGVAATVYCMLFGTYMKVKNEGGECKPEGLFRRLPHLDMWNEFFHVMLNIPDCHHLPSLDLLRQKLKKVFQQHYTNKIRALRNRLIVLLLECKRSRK

[14] = target: Dual specificity protein kinase CLK3 (Homo sapiens) (UniProt P49761); test: CLK3 DiscoveRx kinase panel; conditions: Compound concentration 1.0 uM
[15] = target: Non-receptor tyrosine-protein kinase TNK1 (Homo sapiens) (UniProt Q13470); test: TNK1 DiscoveRx kinase panel; conditions: Compound concentration 1.0 uM
[16] = target: Serine/threonine-protein kinase MARK1 (Homo sapiens) (UniProt Q9P0L2); test: MARK1 DiscoveRx kinase panel; conditions: Compound concentration 1.0 uM
[17] = target: Mitogen-activated protein kinase 10 (Homo sapiens) (UniProt P53779); test: JNK3 DiscoveRx kinase panel; conditions: Compound concentration 1.0 uM
Chain of Mitogen-activated protein kinase 10 (Homo sapiens) (P53779 whole entry): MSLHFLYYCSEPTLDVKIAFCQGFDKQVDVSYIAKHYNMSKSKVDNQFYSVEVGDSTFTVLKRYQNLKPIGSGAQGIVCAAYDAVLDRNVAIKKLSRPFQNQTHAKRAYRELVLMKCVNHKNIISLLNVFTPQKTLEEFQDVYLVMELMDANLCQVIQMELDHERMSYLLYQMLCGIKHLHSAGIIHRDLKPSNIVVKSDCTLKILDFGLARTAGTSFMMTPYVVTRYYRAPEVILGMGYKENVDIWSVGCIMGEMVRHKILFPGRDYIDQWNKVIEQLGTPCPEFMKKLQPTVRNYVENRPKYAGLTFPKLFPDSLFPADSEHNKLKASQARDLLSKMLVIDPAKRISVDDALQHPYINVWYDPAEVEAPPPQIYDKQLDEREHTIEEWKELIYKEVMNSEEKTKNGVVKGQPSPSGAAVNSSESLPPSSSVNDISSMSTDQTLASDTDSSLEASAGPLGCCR

[18] = target: Type-1 angiotensin II receptor (Homo sapiens) (UniProt P30556); test: Angiotensin AT1 Eurofins-Panlabs radioligand binding assay; conditions: Compound concentration 10.0 uM
[19] = target: Serine/threonine-protein kinase STK11 (Homo sapiens) (UniProt Q15831); test: LKB1 DiscoveRx kinase panel; conditions: Compound concentration 1.0 uM
Chain of Serine/threonine-protein kinase STK11 (Homo sapiens) (Q15831 whole entry): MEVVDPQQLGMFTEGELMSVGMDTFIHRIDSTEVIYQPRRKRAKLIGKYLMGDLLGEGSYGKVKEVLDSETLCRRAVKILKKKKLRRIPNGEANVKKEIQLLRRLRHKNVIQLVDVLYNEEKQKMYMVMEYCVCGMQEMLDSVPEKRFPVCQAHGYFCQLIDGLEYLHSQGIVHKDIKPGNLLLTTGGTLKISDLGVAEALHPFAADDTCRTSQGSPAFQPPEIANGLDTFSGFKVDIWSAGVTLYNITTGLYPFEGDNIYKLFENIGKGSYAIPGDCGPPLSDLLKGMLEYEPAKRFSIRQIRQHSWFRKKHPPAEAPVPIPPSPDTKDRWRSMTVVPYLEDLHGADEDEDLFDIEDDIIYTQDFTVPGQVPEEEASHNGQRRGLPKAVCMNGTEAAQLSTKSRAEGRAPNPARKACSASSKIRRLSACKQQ

[20] = target: Histamine H4 receptor (Homo sapiens) (UniProt Q9H3N8); conditions: Compound concentration 10.0 uM
Chain of Histamine H4 receptor (Homo sapiens) (Q9H3N8 whole entry, the tested form may be a part): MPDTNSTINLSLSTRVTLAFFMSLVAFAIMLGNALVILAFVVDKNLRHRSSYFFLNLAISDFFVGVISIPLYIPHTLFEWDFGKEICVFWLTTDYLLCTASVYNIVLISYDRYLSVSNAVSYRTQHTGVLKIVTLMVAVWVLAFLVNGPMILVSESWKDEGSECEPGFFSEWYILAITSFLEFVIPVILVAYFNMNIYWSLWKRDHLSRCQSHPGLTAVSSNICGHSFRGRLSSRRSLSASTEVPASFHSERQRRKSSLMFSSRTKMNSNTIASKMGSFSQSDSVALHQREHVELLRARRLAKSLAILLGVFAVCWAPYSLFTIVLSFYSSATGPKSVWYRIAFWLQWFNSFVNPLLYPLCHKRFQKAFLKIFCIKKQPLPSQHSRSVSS

[21] = target: LIM domain kinase 1 (Homo sapiens) (UniProt P53667); test: LIMK1 DiscoveRx kinase panel; conditions: Compound concentration 1.0 uM
Chain of LIM domain kinase 1 (Homo sapiens) (P53667 whole entry, looked up, the tested form may be a part): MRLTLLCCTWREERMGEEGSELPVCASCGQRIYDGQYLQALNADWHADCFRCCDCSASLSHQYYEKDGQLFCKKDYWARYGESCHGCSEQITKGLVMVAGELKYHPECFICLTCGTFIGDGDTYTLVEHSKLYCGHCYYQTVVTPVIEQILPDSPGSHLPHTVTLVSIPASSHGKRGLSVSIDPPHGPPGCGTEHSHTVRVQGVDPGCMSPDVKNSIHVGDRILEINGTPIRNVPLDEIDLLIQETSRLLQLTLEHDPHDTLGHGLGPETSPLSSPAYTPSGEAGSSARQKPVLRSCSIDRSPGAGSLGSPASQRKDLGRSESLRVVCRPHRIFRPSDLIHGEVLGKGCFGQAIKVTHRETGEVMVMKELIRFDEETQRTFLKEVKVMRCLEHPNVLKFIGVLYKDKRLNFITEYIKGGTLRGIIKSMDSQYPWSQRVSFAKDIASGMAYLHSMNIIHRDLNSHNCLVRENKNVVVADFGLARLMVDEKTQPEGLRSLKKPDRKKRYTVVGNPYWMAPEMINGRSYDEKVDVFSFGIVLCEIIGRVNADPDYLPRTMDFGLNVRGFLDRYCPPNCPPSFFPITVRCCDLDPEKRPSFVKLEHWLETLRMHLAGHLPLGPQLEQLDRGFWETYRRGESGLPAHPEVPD

[22] = target: Tyrosine-protein kinase Yes (Homo sapiens) (UniProt P07947); test: YES DiscoveRx kinase panel; conditions: Compound concentration 1.0 uM
[23] = target: Adenosine receptor A1 (Homo sapiens) (UniProt P30542); conditions: Compound concentration 10.0 uM
[24] = target: Tyrosine-protein kinase receptor Tie-1 (Homo sapiens) (UniProt P35590); test: TIE1 DiscoveRx kinase panel; conditions: Compound concentration 1.0 uM
Chain of Tyrosine-protein kinase receptor Tie-1 (Homo sapiens) (P35590 whole entry): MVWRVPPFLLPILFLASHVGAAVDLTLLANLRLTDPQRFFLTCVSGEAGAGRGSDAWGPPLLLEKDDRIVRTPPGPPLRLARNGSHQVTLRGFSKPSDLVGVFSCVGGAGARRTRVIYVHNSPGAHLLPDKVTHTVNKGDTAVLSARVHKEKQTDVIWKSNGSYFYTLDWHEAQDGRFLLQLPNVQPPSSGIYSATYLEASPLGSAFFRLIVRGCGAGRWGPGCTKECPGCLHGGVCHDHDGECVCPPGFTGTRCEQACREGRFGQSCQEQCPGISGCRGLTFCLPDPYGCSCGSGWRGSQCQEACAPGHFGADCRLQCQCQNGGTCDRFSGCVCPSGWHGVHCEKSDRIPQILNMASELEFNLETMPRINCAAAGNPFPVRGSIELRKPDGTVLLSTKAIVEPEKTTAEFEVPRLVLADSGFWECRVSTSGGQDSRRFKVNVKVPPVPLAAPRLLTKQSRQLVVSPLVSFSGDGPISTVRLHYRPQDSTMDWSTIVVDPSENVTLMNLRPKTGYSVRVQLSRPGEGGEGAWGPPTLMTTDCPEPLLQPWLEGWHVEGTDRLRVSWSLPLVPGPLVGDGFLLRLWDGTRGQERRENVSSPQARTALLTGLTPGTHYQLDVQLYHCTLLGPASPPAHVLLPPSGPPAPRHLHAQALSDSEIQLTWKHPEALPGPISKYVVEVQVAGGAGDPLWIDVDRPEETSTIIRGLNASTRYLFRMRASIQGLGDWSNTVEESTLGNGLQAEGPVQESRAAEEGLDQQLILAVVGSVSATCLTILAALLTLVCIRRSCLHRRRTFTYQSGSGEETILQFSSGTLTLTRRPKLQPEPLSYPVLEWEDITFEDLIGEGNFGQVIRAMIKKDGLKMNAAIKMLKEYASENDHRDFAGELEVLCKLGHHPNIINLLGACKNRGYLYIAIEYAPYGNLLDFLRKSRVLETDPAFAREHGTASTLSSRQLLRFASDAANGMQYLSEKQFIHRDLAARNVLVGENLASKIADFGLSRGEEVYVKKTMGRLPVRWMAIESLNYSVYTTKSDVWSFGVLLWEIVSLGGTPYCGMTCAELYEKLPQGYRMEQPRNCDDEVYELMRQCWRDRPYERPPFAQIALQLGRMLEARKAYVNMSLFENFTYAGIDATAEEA

[25] = target: Serine/threonine-protein kinase PLK3 (Homo sapiens) (UniProt Q9H4B4); test: PLK3 DiscoveRx kinase panel; conditions: Compound concentration 1.0 uM
[26] = target: Activin receptor type-2B (Homo sapiens) (UniProt Q13705); test: ACVR2B DiscoveRx kinase panel; conditions: Compound concentration 1.0 uM
[27] = target: D(2) dopamine receptor (Homo sapiens) (UniProt P14416); conditions: Compound concentration 10.0 uM
[28] = target: Melanocyte-stimulating hormone receptor (Homo sapiens) (UniProt Q01726); test: Melanocortin MC1 Eurofins-Panlabs radioligand binding assay; conditions: Compound concentration 10.0 uM
[29] = target: Prostaglandin G/H synthase 1 (Homo sapiens) (UniProt P23219); test: Inhibition of Cyclooxygenase COX-1 at compound concentration of 10.0 uM in the Eurofins-Panlabs enzyme assay (Eurofins_assay_116020); conditions: Compound concentration 10.0 uM
[30] = organism: Homo sapiens; test: Inhibition of Phosphodiesterase PDE4 at compound concentration of 10.0 uM in the Eurofins-Panlabs enzyme assay (Eurofins_assay_154000); type: protein assay; parameters: substrate with concentration 1.01 uM [3 H]cAMP + cAMP, incubation time 20 min, incubation temperature 25 C; conditions: Compound concentration 10.0 uM
[31] = target: Tyrosine-protein kinase SYK (Homo sapiens) (UniProt P43405); test: SYK DiscoveRx kinase panel; conditions: Compound concentration 1.0 uM
[32] = target: B2 bradykinin receptor (Homo sapiens) (UniProt P30411); test: Bradykinin B2 Eurofins-Panlabs radioligand binding assay; conditions: Compound concentration 10.0 uM
[33] = target: Tyrosine-protein kinase JAK2 (Homo sapiens) (UniProt O60674); test: JAK2(JH1domain-catalytic) DiscoveRx kinase panel; conditions: Compound concentration 1.0 uM
[34] = target: 5-hydroxytryptamine receptor 1D (Homo sapiens, UniProt P28221); conditions: Compound concentration 10.0 uM
[35] = target: Eukaryotic translation initiation factor 2-alpha kinase 1 (Homo sapiens) (UniProt Q9BQI3); test: EIF2AK1 DiscoveRx kinase panel; conditions: Compound concentration 1.0 uM
[36] = HeLa-MaTu-ADR cell line Proliferation assay; type: functional, Homo sapiens; conditions: time 4 day
[37] = target: Tyrosine-protein kinase ABL2 (Homo sapiens) (UniProt P42684); test: ABL2 DiscoveRx kinase panel; conditions: Compound concentration 1.0 uM
[38] = target: Platelet-derived growth factor receptor beta (Homo sapiens) (UniProt P09619); test: PDGFRB DiscoveRx kinase panel; conditions: Compound concentration 1.0 uM
[39] = target: Cyclin-dependent kinase 15 (Homo sapiens) (UniProt Q96Q40); test: PFTAIRE2 DiscoveRx kinase panel; conditions: Compound concentration 1.0 uM
[40] = target: Myosin light chain kinase (Homo sapiens) (UniProt Q32MK0); test: MLCK DiscoveRx kinase panel; conditions: Compound concentration 1.0 uM
[41] = target: Tyrosine-protein kinase Srms (Homo sapiens) (UniProt Q9H3Y6); test: SRMS DiscoveRx kinase panel; conditions: Compound concentration 1.0 uM
[42] = target: Serine/threonine-protein kinase LATS1 (Homo sapiens) (UniProt O95835); test: LATS1 DiscoveRx kinase panel; conditions: Compound concentration 1.0 uM
[43] = target: Mitogen-activated protein kinase kinase kinase 20 (Homo sapiens) (UniProt Q9NYL2); test: ZAK DiscoveRx kinase panel; conditions: Compound concentration 1.0 uM
[44] = target: T1, Mitotic checkpoint serine/threonine-protein kinase BUB1; test: BUB1 DiscoveRx kinase panel
[45] = target: Serine/threonine-protein kinase 35 (Homo sapiens) (UniProt Q8TDR2); test: STK35 DiscoveRx kinase panel; conditions: Compound concentration 1.0 uM
[46] = target: Non-receptor tyrosine-protein kinase TYK2 (Homo sapiens) (UniProt P29597); test: TYK2(JH2domain-pseudokinase) DiscoveRx kinase panel; conditions: Compound concentration 1.0 uM
[47] = target: Myosin light chain kinase, smooth muscle (Homo sapiens) (UniProt Q15746); test: MYLK DiscoveRx kinase panel; conditions: Compound concentration 1.0 uM
[48] = target: Kappa-type opioid receptor (Homo sapiens) (UniProt P41145); conditions: Compound concentration 10.0 uM
[49] = target: Inhibitor of nuclear factor kappa-B kinase subunit epsilon (Homo sapiens) (UniProt Q14164); test: IKK-epsilon DiscoveRx kinase panel; conditions: Compound concentration 1.0 uM
[50] = target: Insulin-like growth factor 1 receptor (Homo sapiens) (UniProt P08069); test: IGF1R DiscoveRx kinase panel; conditions: Compound concentration 1.0 uM

COc1cnccc1Nc1nc(-c2nn(Cc3c(F)cc(OCCO)cc3F)c3ccccc23)ncc1OC
residual activity [1]: 91%
inhibition [2]: -6.28%
residual activity [3]: 93%
residual activity [4]: 92%
residual activity [5]: 89%
residual activity [6]: 93%
residual activity [7]: 100%
residual activity [8]: 100%
residual activity [9]: 100%
residual activity [10]: 100%
residual activity [11]: 90%
residual activity [12]: 100%
EC50 [13]: 6.1 nM (active)
residual activity [14]: 100%
residual activity [15]: 62%
residual activity [16]: 97%
residual activity [17]: 56%
inhibition [18]: -2%
residual activity [19]: 100%
inhibition [20]: 39.3%
residual activity [21]: 86%
residual activity [22]: 100%
inhibition [23]: 9%
residual activity [24]: 65%
residual activity [25]: 100%
residual activity [26]: 94%
inhibition [27]: 3.66%
inhibition [28]: 4%
inhibition [29]: 54%
inhibition [30]: 52%
residual activity [31]: 100%
inhibition [32]: 0%
residual activity [33]: 100%
inhibition [34]: 9.3%
residual activity [35]: 87%
Cell Proliferation IC50 [36]: 1100 nM
residual activity [37]: 100%
residual activity [38]: 77%
residual activity [39]: 96%
residual activity [40]: 72%
residual activity [41]: 100%
residual activity [42]: 95%
residual activity [43]: 42%
Kd [44]: 3.3 nM
residual activity ([44]; Compound concentration 1.0 uM): 0.05%
residual activity [45]: 99%
residual activity [46]: 100%
residual activity [47]: 100%
inhibition [48]: 26%
residual activity [49]: 92%
residual activity [50]: 97%
